Data published in patent US9040715B2 (priority 2008, dated 2015).
Like-named read-outs stand apart in the source and are kept apart here.

How the values were obtained:
Type in all cases: cell-based
AVA5 cells = test: Cytotoxicity by neutral red dye uptake after 3 days of treatment
Experimental: (§1) The antiviral activity of Compounds I-8 and I-9 was assessed in a 3-day assay using the stably-expressing HCV replicon cell lines, AVA5 (sub-genomic CONI, genotype 1b) and APC103 (genomic H77, genotype la) maintained as sub -confluent cultures on 96-well plates. Antiviral activity was determined by blot hybridization analysis of intracellular HCV RNA (normalized to the level of cellular B-actin RNA in each culture sample). A 3-fold suppression of HCV RNA and less than 2-fold suppression of cellular B-actin RNA was used as the cutoff. Cytotoxicity was assessed by neutral red dye uptake after 3 days of treatment. Dose response inhibition of HCV was also determined (FIG. 6). The nucleoside analogue 2′C-methyl cytidine (2′CmeC) was used as an assay activity control. EC50, EC90 and CC50 values (+/− standard deviations [S.D.]) were calculated by linear regression analysis. EC50 and EC90 are drug concentrations at which a 2-fold, or a 10-fold depression of intracellular HBV DNA or HCV RNA (relative to the average levels in untreated cultures), respectively, was observed. CC50 is the drug concentration at which a 2-fold lower level of neutral red dye uptake (relative to the average levels in untreated cultures) was observed.

APC103 cells = test: as above
Experimental: as §1

[1] = test system: HCV replicon cell line APC103 (genomic H77, genotype la); test: Anti-HCV activity, 3-day HCV replicon assay, blot hybridization of intracellular HCV RNA; settings: for EC50: read-out: EC50 (μM ± SD); for EC90: 10-fold depression of intracellular HCV RNA
Experimental: as §1

[2] = test system: HCV replicon cell line AVA5 (sub-genomic CONI, genotype 1b); test: as above; settings: for EC50: 2-fold depression of intracellular HCV RNA
Experimental: as §1

[3] = Cytotoxicity by neutral red dye uptake after 3 days of treatment; settings: human
Experimental: as §1

HCV replication = test: Effect of combination treatments on HCV replication (CalcuSyn analysis); set-up: key to Type of Interaction: S, synergistic; settings: for EC50 / EC90: Hepatitis C virus; for EC50: read-out: Compound I-9 EC50; for EC90: read-out: Compound I-9 EC90
From the text: Compound I-9 was utilized in combination treatments with interferon (with and without RBV), and several representative STAT—C agents including 2′CmeC (nucleoside analogue), HCV-796 (non-nucleoside polymerase inhibitor), and VX-950 (protease inhibitor) (Table 13). For these studies, the compounds were mixed at equipotent (not necessarily equimolar) concentrations based on the monotherapy EC90 values. For example, 2′CmeC and Compound I-9 were mixed at equal molar concentrations, while 10-fold more Compound I-9 was used relative to VX-950 in that combination. The mixtures were then serially diluted for dose response analysis keeping the molar ratios constant. Corresponding monotherapies were also included. # Ribavirin (RBV) was held at a constant concentration of 30 uM for all serial dilutions of this combination. The overall type of interaction as determined by analysis with CalcuSyn (Biosoft, Inc.; Cambridge, UK) for each combination is indicated next to the corresponding EC50 and EC90 values in Table 13.
Analysis of combination therapies was performed using Calcusyn™ software (Biosoft, Inc.; Cambridge, UK). Two types of evaluations were performed (see FIG. 7). The top panels of FIG. 5 present CI-Fa (Combination Index—Fraction (of virus) affected) plots). For these plots, a combination index [CI] greater than 1.0 indicates antagonism and a CI less than 1.0 indicates synergism. Evaluations of synergy, additivity (summation), or antagonism at different levels of virus inhibition (e.g. […] (Fa=0.5) to 99% (Fa=0.99)) were performed and are provided by the plotted lines and points. Dotted lines denoting 1.96 standard deviations for significance evaluations can be added but are not included in this example for clarity of presentation. The bottom panels present conservative isobolograms. […] Three lines radiating out from the axes denote the expected (e.g., additive) EDC50, EDC75, and EDC90 values for drug combinations as calculated from the monotherapies. ED50, ED75, and ED90 values for the combinations that plot to the left (e.g., less than) of the corresponding lines indicate synergy, and values plotting to the right (e.g., greater than) of the corresponding lines indicate antagonism.

[4] = Hepatitis C virus, Ava5, read-out: EC90 (μM ± SD)
[5] = combination with 2′CmeC, molar ratio 1:1
[6] = combination with HCV-796, molar ratio 1:100
[7] = combination with IFN + 30 μM RBV (RBV held constant), molar ratio 1:1
[8] = combination with IFN, molar ratio 1:1
[9] = combination with VX-950, molar ratio 1:10

## C[C@@]1(O)[C@H](O)[C@@H](CO)O[C@H]1n1ccc(N)nc1=O [2′CmeC, 2′C-methyl cytidine, reference compound]
AVA5 cells
  CC50: > 300 µM
APC103 cells
  CC50: > 300 µM
[1]; APC103
  SI (CC50/EC50): >136
  EC90: 6.4 ± 0.6 µM
[1]; APC103, 2-fold depression of intracellular HCV RNA
  EC50: 5.8 ± 0.4 µM
[2]; AVA5
  SI (CC50/EC50): >150
  EC50: 2 ± 0.1 µM
[2]; AVA5, 10-fold depression of intracellular HCV RNA, read-out: EC90 (μM ± SD)
  EC90: 2.2 ± 0.2 µM

## O=C(Cn1sc2ccccc2c1=O)Nc1cccc(Oc2ccccc2)c1 [Compound I-8]
[3]; APC103
  CC50 at 3 days: > 100 µM
[3]; AVA5
  CC50 at 3 days: > 100 µM
[1]; APC103
  SI (CC50/EC50): >18
[1]; Hepatitis C virus
  EC50: 19 ± 2.3 µM
[1]; Hepatitis C virus, APC103
  EC90: 23 ± 1.8 µM
[2]; AVA5
  SI (CC50/EC50): >17
[2]; [4]
  EC90: 5.6 ± 0.7 µM
[2]; Hepatitis C virus, AVA5
  EC50: 5.8 ± 3.7 µM

## CC(C(=O)Nc1cccc(Oc2ccccc2)c1)n1sc2ccccc2c1=O (stereo not drawn) [Compound I-9]
[3]; APC103
  CC50 at 3 days: > 100 µM
[3]; AVA5
  CC50 at 3 days: > 100 µM
HCV replication; None (monotherapy)
  EC50: 2.6 ± 0.2 µM
  EC90: 9.1 ± 0.5 µM
HCV replication; [5]
  EC50: 0.7 ± 0.1 µM
  EC90: 1.8 ± 0.2 µM
  Type of Interaction: S
HCV replication; [6]
  EC50: 0.1 ± 0.01 µM
  EC90: 0.4 ± 0.03 µM
  Type of Interaction: S
HCV replication; [7]
  EC50: 0.2 ± 0.03 µM
  EC90: 0.7 ± 0.1 µM
  Type of Interaction: S
HCV replication; [8]
  EC50: 0.3 ± 0.03 µM
  EC90: 1 ± 0.1 µM
  Type of Interaction: S
HCV replication; [9]
  EC50: 0.3 ± 0.02 µM
  EC90: 0.7 ± 0.1 µM
  Type of Interaction: S
HCV replication; with interferon, ribavirin, and the STAT-C agents
  Interaction in combination treatments: interacted favorably
[1]; APC103
  SI (CC50/EC50): >35
[1]; Hepatitis C virus
  EC50: 8.5 ± 0.6 µM
[1]; Hepatitis C virus, APC103
  EC90: 9 ± 1 µM
[2]; AVA5
  SI (CC50/EC50): >42
[2]; [4]
  EC90: 2.8 ± 0.3 µM
[2]; Hepatitis C virus, AVA5
  EC50: 2.4 ± 0.2 µM
